Test results published in patent US20040116448A1, “Substances for the therapy of diseases caused by highly proliferating cells” (priority 2001, published 2004).

Tests used:
[1] = system: BJAB cells; assay: Mitochondrial membrane potential (JC-1 staining) in BJAB cells; format: cell-based
Experimental: (§1) Further studies had the result that the BJAB cells are driven to the mitochondrial apoptosis signal pathway by JV-206-1. […] In addition, the fragmentation of the DNA was measured as a specific characteristic of apoptosis as described by Essmann et al. (2000). […] In these experiments, the proportion of apoptotic cells was between 20% and 48% of the total population, depending on the concentration and incubation time.

[2] = system: BJAB cells; assay: Cell death of BJAB cells after incubation with JV-206-1 (FIG. 6A); format: cell-based; conditions: incubation for 48 hours
Experimental: as §1

[3] = system: BJAB cells; assay: DNA fragmentation (propidium iodide staining, flow cytometry) apoptosis assay in BJAB cells; format: cell-based; conditions: 20 μM
Experimental: The measurement of apoptosis is based on a method which detects the fragmentation of DNA on the level of individual cells, which is typical of apoptosis and distinguishes this form of cell death from necrosis. Thus, BJAB cells were treated with different concentrations of N76 or N69 for 24 h. Controls contained corresponding amounts of the solubilizer ethanol. After the treatment, the fragmentation of DNA was measured by staining with propidium iodide followed by quantification by flow cytometry as described by Essmann et al. (2000). The values are stated as % of apoptotic cells based on the total population±SD (n=3).
as §1

[4] = system: BIAB cells; assay: Combined proliferation and cell death assay (Neubauer cell counting, trypan blue staining); format: cell-based; conditions: 25 μM, after 24 h
Experimental: To further characterize the role of the various components of the newly described substances, the iron-complexed compound N69 and the compound obtainable from N69 by cleaving the Fe(CO)3 group were prepared and employed in a combined proliferation and cell death assay. Thus, BIAB cells were treated for 24 h and 72 h. with different concentrations of N69 or the corresponding compound lacking the iron complex. Controls contained corresponding amounts of the solubilizer ethanol. After the treatment, the number of cells was counted in a Neubauer counting chamber, and the number of dead cells was counted by trypan blue staining as described by Wieder et al. (1995). […] FIG. 5B states the proportion of dead cells in %±SD (n=3) as determined at these times at the respective concentration. […] As can be easily seen, the complexed iron plays an important role in the cell-death inducing activity of the substances. The complexed iron shifts the dose-effect curve of the cell-death inducing effect of N69 towards lower concentrations.

[5] = system: cells from patients suffering from different leukemias; assay: DNA fragmentation apoptosis assay in cells from patients suffering from different leukemias; format: cell-based, human; conditions: 25 μmol/l, 36 h
Experimental: The usefulness of substances according to the invention for the therapy of various malignant diseases of the hematopoetic system was tested on cells from patients suffering from different diseases. Thus, cells from patients suffering from different leukemias were isolated and, after dilution with cell culture medium, treated for 36 h with 25 μM N69. Controls contained corresponding amounts of the solubilizer ethanol. After the treatment, the fragmentation of the DNA was measured by staining with propidium iodide followed by quantification by flow cytometry as described by Essmann et al. (2000). The result can be seen in FIG. 3. The measured values are stated as % of apoptotic cells based on the total population and represent the mean value from duplicate experiments.

[6] = system: lymphoblasts from children afflicted with acute lymphoblastic leukemia (ALL); assay: DNA fragmentation apoptosis assay in primary lymphoblasts from children with acute lymphoblastic leukemia (ALL); format: cell-based, human; conditions: 25 μM, 36 h
Experimental: In this experiment, lymphoblasts from children afflicted with acute lymphoblastic leukemia (ALL) were isolated and, after dilution with cell culture medium, treated for 36 h with 25 μM N76, 25 μM N69 or with 9 μM epirubicin (E) as a positive control. Controls contained corresponding amounts of the solubilizer ethanol. After the treatment, the fragmentation of the DNA was measured by staining with propidium iodide followed by quantification by flow cytometry as described by Essmann et al. (2000). The values are stated as % of apoptotic cells based on the total population±SD (n=3).
Thus, with N76 and N69, two substances of general structural formula 2 are provided as effective agents against certain tumor cells, especially those of childhood ALL, but also against other malignant diseases of different origin. […] In these experiments, the cells from eleven ALL patients were isolated and, after dilution with cell culture medium, treated for 36 h with 25 μM N69, 25 μM N76 or corresponding amounts of cytarabin (AraC), fludarabin or doxorubicin. […] After the treatment, the fragmentation of the DNA was measured by staining with propidium iodide followed by quantification by flow cytometry as described by Essmann et al. (2000). P values were calculated from a paired t test and are stated in FIG. 4 directly for the individual pairs to be compared. […]

| Compound | fraction of cells having a reduced mitochondrial membrane potential (ΔΨm) [1] | induction of cell death [2] | cell death by apoptosis (DNA fragmentation) [3] | proportion of dead cells (trypan blue) [4] | induction of apoptotic cell death ([5]; cells from patients suffering from acute myeloblastic leukemia (AML)) | induction of apoptotic cell death ([5]; cells from patients suffering from chronic myeloblastic leukemia (CML)) | induction of apoptotic cell death ([5]; cells from patients with a first manifestation of ALL) | induction of apoptotic cell death ([5]; cells from patients with a recurrence of acute lymphoblastic leukemia (ALL-Rez)) | pro-apoptotic effect in vitro towards primary ALL cells compared to established cytostatic agents ([6]; cells from eleven ALL patients, versus doxorubicin, cytarabin and fludarabin-5′ dihydrogenphosphate, paired t test) | induction of apoptosis in vitro in therapy-resistant cells of patients ([6]; ALL lymphoblasts, in contrast to 9 μM epirubicin (positive control)) |
| --- | --- | --- | --- | --- | --- | --- | --- | --- | --- | --- |
| CCOC(=O)C=CC1=C[C@H](n2cc(Br)c(=O)[nH]c2=O)C[C@H]1CO[Si](C)(C)C(C)(C)C(C)C.O=[C]=[Fe](=[C]=O)=[C]=O (racemic) [JV-206-1, (3RS,5RS)-3-[3-(5-bromo-2,4-dioxo-3,4-dihydro-2H-pyrimidin-1-yl)-5-[dimethyl-(1,1,2-trimethylpropyl)silanyloxymethyl]-cyclopent-1-enyl]acrylic-acid-ethyl-estertricarbonyliron] | concentration-dependent increase | induces cell death | major part of the cells die | – | – | – | – | – | – | – |
| exo-[2′,2″,3′,3″-η-(3′-(3″-(E)-acrylic-acid-ethyl-ester-3″-yl)-2′,3′-didehydro-2′,3′-dideoxy-5′-O-(dimethylthexylsilyl)-β-D-cytidine)]tricarbonyliron [N69] | – | – | – | about 90% | induces apoptotic cell death | induces apoptotic cell death | induces apoptotic cell death | induces apoptotic cell death | significantly better pro-apoptotic effect | induce apoptosis |
